In data set [1] the target is CUL4A-DDB1-BPB interaction (Homo sapiens (Human), UniProt Q16531). Briefly: AlphaLISA in vitro binding assay, CUL4A and DDB1-BPB binding. As to conditions: inhibition of CUL4A and DDB1-BPB binding. The method, boiled down:
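Compound disruption of CUL4A binding to DDB1-BPB measured by AlphaLISA/AlphaScreen bead proximity in 384-well format. IC50 from nonlinear log(inhibitor)-vs-response curve fit.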
(Alpha assays give light when donor and acceptor beads are brought close together.)

The subject of data set [2] is CUL4A^low T47D breast cancer cells. Briefly: Cell killing in CUL4-low T47D cells (CellTiter Glo). In kind it is cell-based. As to conditions: Homo sapiens, 192 h, 8 days treatment. As to the method: EC50 indicates compound concentration can cause 50% cell killing in CUL4° ^w T47D cells (see Table 1, column 7). CUL4A^low T47D breast cancer cells were seeded in 96 well plate. […] Change fresh medium and compounds every 48 hours. After 8 days treatment, cell viability was examined by using CellTiter Glo kit (Promega #7570) following the manufacturer's guidelines (https://www.promega.com/-/media/files/resources/protocols/technical-bulletins/0/celltiter-glo-luminescent-cell-viability-assay-protocol.pdf?rev=0d95c232094b41daa06d0c110d1d916f&sc_lang=en, hereby incorporated by reference in its entirety for all purposes). EC50 concentration was calculated by Prism 8 XY analysis nonlinear regression (curve fit-Log(inhibitor) vs response). EC50 indicates cell killing potential in CUL4 low T47D cell line and the EC50 difference between CUL4^high and CUL4^low cells indicates the small molecule cause specific cell killing.
CUL4A^high MDA-MB-468, CUL4^low (T47D), and MCF7 breast cancer cells were seeded in 96 well plates separately. […] Replace with fresh medium and compounds every 48 hours. After 8 days treatment, cell viability was examined by CellTiter Glo kit (Promega #7570). First, transfer the appropriate volume (10 ml for Cat. #G7570) of CellTiter-Glo® Buffer into the amber bottle containing CellTiter-Glo® Substrate to reconstitute the lyophilized enzyme/substrate mixture. This forms the CellTiter-Glo® Reagent. Second, add CellTiter-Glo® Reagent in an equal volume (100 μl per well for 96-well plates) to all wells. Mix contents for 2 minutes on an orbital shaker to induce cell lysis. Incubate at room temperature for 15 minutes to stabilize luminescent signal. Then record luminescence. EC50 concentration was calculated by Prism 8 XY analysis nonlinear regression (curve fit-Log(inhibitor) vs response).
In general terms: Cellular ATP, detected with luciferase, serves as a proxy for viable cell number.

Another data set concerns MCF7 breast cancer cells. Briefly: Cell killing in MCF7 cells (CellTiter Glo). In kind it is cell-based. As to conditions: Homo sapiens, MCF7, 192 h; Table 3, 0 to 20 μM compound, 8 days treatment. As to the method: CUL4A^high MDA-MB-468, CUL4^low (T47D), and MCF7 breast cancer cells were seeded in 96 well plates separately. Cells were treated with DMSO, or from 0 to 20 μM compound respectively. Replace with fresh medium and compounds every 48 hours. After 8 days treatment, cell viability was examined by CellTiter Glo kit (Promega #7570). First, transfer the appropriate volume (10 ml for Cat. #G7570) of CellTiter-Glo® Buffer into the amber bottle containing CellTiter-Glo® Substrate to reconstitute the lyophilized enzyme/substrate mixture. This forms the CellTiter-Glo® Reagent. Second, add CellTiter-Glo® Reagent in an equal volume (100 μl per well for 96-well plates) to all wells. Mix contents for 2 minutes on an orbital shaker to induce cell lysis. Incubate at room temperature for 15 minutes to stabilize luminescent signal. Then record luminescence. EC50 concentration was calculated by Prism 8 XY analysis nonlinear regression (curve fit-Log(inhibitor) vs response).

The target in data set [3] is T1, DDB1-BPB (Homo sapiens (Human), UniProt Q16531). Kind of data set: Microscale Thermophoresis (MST) binding to DDB1-BPB. Conditions: labeled DDB1-BPB, 25° C. On the procedure:
Kd represents dissociation constant, which measures the affinity of small molecule binding to the scaffold DDB1-BPB by Microscale Thermophoresis (MST) (see Table 1, column 9). MST experiments were performed on a Monolith NT 115 system (Nano Temper Technologies, Munich, Germany) using 100% LED and 60% IR-laser power (https://physiology.case.edu/media/eq manuals/eq_manual_nano-temper_mst_starting_guide.pdf, hereby incorporated by reference in its entirety for all purposes). The labeling of DDB1-BPB ([…]) was performed in labeling buffer with NHS-Red reactive dye (30 μM) (Nanotemper), which reacts efficiently with the primary amines of the proteins to form a stable dye protein conjugates. The labeling reaction was carried out at RT. A 16-point serial dilution (1:1) was prepared for compound at the final concentration ranged from 200 µM to 3 nM in PBS containing 0.05% tween. The samples were filled into Premium capillaries and measurements were conducted at 25° C. An equation implemented by the software MO-S002 MO Affinity Analysis, provided by the manufacturer, was used for fitting normalized fluorescence values at different concentrations of ligands.

The subject of data set [4] is CUL4A^high MDA-MB-468 breast cancer cells. Kind of data set: Cell killing in CUL4-high MDA-MB-468 cells (CellTiter Glo). In kind it is cell-based. Conditions: Homo sapiens, 8 days treatment. In a few lines: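 Cells seeded, treated after 24 h with DMSO or compound (0 to 20 μM). Medium and compound replaced every 48 h over 8 days. Viability measured by CellTiter-Glo luminescence; EC50 (50% killing) from log(inhibitor) vs response nonlinear fit.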

The target in data set [5] is T1, DDB1-BPB. Kind of data set: Surface Plasmon Resonance (SPR) binding to DDB1-BPB. Conditions: DDB1-BPB immobilized. From the text:
Kd represents dissociation constant, which measures the affinity of small molecule binding to the scaffold DDB1-BPB by Surface Plasmon Resonance (SPR) (https://www.bio-rad.com/webroot/web/pdf/lsr/literature/Bulletin_6414.pdf, hereby incorporated by reference in its entirety) (see Table 1, column 8). To assess the interaction between DDB1-BPB and compounds, a multi-parametric SPR instrument (BioRad ProteON XPR360) was used. DDB1-BPB was immobilized onto the GLH sensor surface in a variety of ways as follows: flow channels were activated in parallel with 1/20 diluted EDC/SNHS. DDB1-BPB was diluted to 0.1 mg/mL in sodium acetate pH 4.5 and directly coupled onto channel for 4 min. Excess reactive esters were blocked with a 5-min injection of 1 M ethanolamine. Mean immobilization levels were 17,000 RU with <2% variation along a strip. One channel was left unmodified to provide an additional reference surface. Next, the binding kinetics of compounds on surfaces was determined in a single injection using a “one-shot” kinetic mode. Typically, compound was prepared as a twofold serial dilution (0, 3.125, 6.25, 12.5, 25, 50 μM) and injected for 60 s at […]. Dissociation was monitored for 800 s. Surfaces were regenerated with multiple 30-s pulses of 60 mM phosphoric acid so that the experiment could be reproduced. All resulting sensor grams were collected and analyzed using the ProteOn manager software.

The nature of data set [6]: Dynamic light scattering (DLS) solubility assay. It is filed as physicochemical. Conditions: normalized intensity ratio of 25 μM compound vs DMSO, in PBS. In a few lines:
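Compounds diluted from DMSO into PBS at final concentrations of 200 μM to 0.78 μM, in triplicate, and aggregation measured by light scattering intensity. A ratio above 2 scores insoluble (−), below 2 soluble (+), and around 2 (+/−).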

The subject of data set [7] is UV-induced CUL4-dependent DDB2 degradation in MEF-F-DDB2 cells. Kind of data set: Cell-based assay for inhibition of UV-induced CUL4-dependent DDB2 degradation. More on the design: key: (+) means that the normalized DDB2/α-tubulin ratio is higher in the compound treated sample than DMSO treated sample; (−) means that no change happens between compound treated sample with control sample. Conditions: DDB2/α-tubulin by Western blot. In a few lines: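 MEF cells expressing Flag-DDB2, in serum-free medium, treated with DMSO or compound, UV-irradiated (254 nm, 0.2 W/m^2), then harvested. Flag-DDB2 measured by western blot against α-tubulin; (+) denotes normalized DDB2/α-tubulin above DMSO, (−) no change.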
Background: Immunoblotting shows a protein as a band on a membrane.

Where [8] appears, read: T47D cells, read-out: EC50 CUL4-Low Cells (cell killing).
[9] abbreviates: 192 h, MDA-MB-468 cells, read-out: EC50 CUL4-High Cells (cell killing).

Where two headings read alike, the source gives them in different places.

Sequence of CUL4A-DDB1-BPB interaction (Q16531 403-706): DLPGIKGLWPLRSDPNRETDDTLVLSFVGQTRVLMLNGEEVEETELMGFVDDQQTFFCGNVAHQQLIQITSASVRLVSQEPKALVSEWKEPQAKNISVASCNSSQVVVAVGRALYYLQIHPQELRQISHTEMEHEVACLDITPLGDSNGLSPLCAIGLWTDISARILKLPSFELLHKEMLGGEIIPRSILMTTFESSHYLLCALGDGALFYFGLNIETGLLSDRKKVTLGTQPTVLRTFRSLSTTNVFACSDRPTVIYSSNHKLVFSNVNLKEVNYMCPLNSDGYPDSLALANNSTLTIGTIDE
T1 sequence (Q16531 403-706): as above

Regarding `CN(c1ccc(-c2nc(C(=O)O)cc3c2[nH]c2cc(F)ccc23)cc1)S(=O)(=O)c1ccccc1` [PA1-3, 7-fluoro-1-(4-(N-methylphenylsulfonamido)phenyl)-9H-pyrido[3,4-b]indole-3-carboxylic acid], the half-maximal inhibitory concentration (IC50) in data set [1] stood at 0.53 µM. Moreover, the EC50 was found to be 3.42 µM in data set [2] (setting [8]); 3.42 µM in data set [2] (T47D, Table 3, 0 to 20 μM compound, read-out: EC50 OF cell killing, T47D); 3.36 µM in the data set on MCF7 breast cancer cells; 0.48 µM in data set [4] (setting [9]); 0.49 µM in data set [4] (MDA-MB-468, 192 h, Table 3, 0 to 20 μM compound, read-out: EC50 OF cell killing, MDA-MB-468). On DDB1-BPB [3], the affinity, expressed as Kd, was 0.72 µM.

Regarding `CS(=O)(=O)c1ccc(-c2nc(C(=O)O)cc3c2[nH]c2ccccc23)cc1` [PA35, 1-(4-methylsulfonylphenyl)-9H-pyrido[3,4-b]indole-3-carboxylic acid], the IC50 in data set [1] is 1.06 ± 0.51 µM. Further, the EC50 in data set [2] (setting [8]) and in data set [4] (setting [9]) was above 100 µM each time. The compound further registered a Kd at DDB1-BPB [5] of 5.58 µM.

Turning to `COC(=O)c1cccc(-c2nc(C(=O)OC(C)(C)C)cc3c2[nH]c2ccccc23)c1` [PA43], the “AlphaLisa IC50” value in data set [1] is recorded as “Neg”. The concentration for a half-maximal effect (EC50) in data set [2] (setting [8]) is 48.2 µM; in data set [4] (setting [9]), 28.3 µM. In data set [6], the “Solubility (DLS Assay)” value was “-(insoluble)”. The “Kd (SPR)” value on DDB1-BPB [5] is given as “no binding”.

For `O=C(O)c1cc2c([nH]c3ccccc32)c(-c2ccc(NCc3ccc(F)cc3)cc2)n1` [PA68, 1-[4-[(4-fluorophenyl)methylamino]phenyl]-9H-pyrido[3,4-b]indole-3-carboxylic acid], the IC50 in data set [1] was found to be 2.33 ± 0.86 µM. Besides, the EC50 in data set [2] (setting [8]) amounted to 11 µM; in data set [4] (setting [9]), 9.12 µM. Further, the “Kd (MST)” value on DDB1-BPB [3] is reported as “Insoluble”. Moreover, binding at DDB1-BPB [5] was put at a Kd of 13.2 µM.

Consider `Cc1ccc2[nH]c3c(-c4ccc(S(C)(=O)=O)cc4)nc(C(=O)O)cc3c2c1` [PA72], for which the IC50 in data set [1] was found to be 0.78 ± 0.02 µM. The “Degradation Inhibition (inhibition of UV-induced DDB2 degradation)” value in data set [7] was “−”. In addition, the “Solubility (DLS Assay)” value in data set [6] was “+/−”. The affinity at DDB1-BPB [5], expressed as Kd, was 4.57 µM.

In the case of `CS(=O)(=O)c1ccc(-c2nc(C(=O)O)cc3c2[nH]c2ccc(O)cc23)cc1` [PA73], in data set [1], the IC50 amounted to 0.73 ± 0.35 µM. Further, the 50% effective concentration (EC50) in data set [2] (setting [8]) and in data set [4] (setting [9]) was above 100 µM in each case. In data set [6], the “Solubility (DLS Assay)” value is given as “+/−”. For the same compound, the equilibrium dissociation constant (Kd) on DDB1-BPB [5] was determined as 7.34 µM.

`CS(=O)(=O)N(Cc1ccccc1)c1ccc(-c2nc(C(=O)O)cc3c2[nH]c2ccccc23)cc1` [PA76, 1-[4-[benzyl(methylsulfonyl)amino]phenyl]-9H-pyrido[3,4-b]indole-3-carboxylic acid]: the IC50 in data set [1] turned out to be 1.52 ± 1.13 µM. Further, the EC50 in data set [2] (setting [8]) was above 100 µM; in data set [4] (setting [9]), 28.9 µM. Moreover, in data set [7], the “Degradation Inhibition (inhibition of UV-induced DDB2 degradation)” value is on record as “+”. Further, at DDB1-BPB [5], the Kd was 4.54 µM.

As usually defined, the IC50 is the point on the concentration scale where inhibition reaches its midpoint. For orientation: EC50 means the concentration needed to bring the measured effect to its halfway point. The term Kd denotes the constant that tells how readily two partners part at equilibrium.
